In brackets after ≈: the same amount, converted by molar mass. Like-named read-outs stand apart in the source and are kept apart here.
How the values were obtained:
[1] = system: Mycobacterium tuberculosis H37Ra ITM-M006710 (ATCC 9431); assay: Microplate Alamar Blue Assay (MABA), Mtb H37Ra; type: cell-based; details: Mycobacterium tuberculosis, 120 h, pH 6.6, MABA, Middlebrook 7H9 broth pH 6.6, resazurin after 120 h; read-out: Mtb H37Ra MIC
[2] = system: Mycobacterium smegmatis DSM 43465 (ATCC 607); assay: Microplate Alamar Blue Assay (MABA), M. smegmatis; type: cell-based; details: for MIC: Mycolicibacterium smegmatis, read-out: M. smegmatis MIC
[3] = system: M. aurum DSM 43999 (ATCC 23366); assay: Microplate Alamar Blue Assay (MABA), M. aurum; type: cell-based; details: Mycolicibacterium aurum; MABA, resazurin after 72 h; read-out: M. aurum MIC
[4] = system: Mycobacterium tuberculosis H37Rv CNCTC My 331/88 (ATCC 27294); assay: MABA microdilution, Mtb H37Rv; type: cell-based; details: for MIC: Mycobacterium tuberculosis, read-out: Mtb H37Rv MIC; for activity on Mtb H37Rv and both MDR strains (in words): virulent strain Mtb H37Rv and MDR isolates IZAK, MATI
[5] = system: Enterococcus faecalis CCM 4224 (ATCC 29212); assay: Antibacterial microdilution broth (EUCAST), EF; type: cell-based; details: Enterococcus faecalis
[6] = system: Staphylococcus aureus subsp. aureus CCM 4223 (ATCC 29213); assay: Antibacterial microdilution broth (EUCAST), SA; type: cell-based; details: Staphylococcus aureus; read after 24 h; read-out: SA MIC
[7] = system: Staphylococcus aureus subsp. aureus methicillin-resistant (MRSA) CCM 4750 (ATCC 43300); assay: Antibacterial microdilution broth (EUCAST), MRSA; type: cell-based; details: Staphylococcus aureus; read after 24 h; read-out: MRSA MIC
[8] = system: Staphylococcus epidermidis CCM 4418 (ATCC 12228); assay: Antibacterial microdilution broth (EUCAST), SE; type: cell-based; details: read after 24 h, read-out: SE MIC
[9] = system: Escherichia coli CCM 3954 (ATCC 25922); assay: Antibacterial microdilution broth (EUCAST), EC; type: cell-based; details: Escherichia coli; read after 24 h; read-out: EC MIC
[10] = system: Acinetobacter baumannii DSM 30007 (ATCC 19606); assay: Antibacterial microdilution broth (EUCAST), ACI; type: cell-based; details: Acinetobacter baumannii; read after 24 h; read-out: ACI MIC
[11] = system: Pseudomonas aeruginosa CCM 3955 (ATCC 27853); assay: Antibacterial microdilution broth (EUCAST), PA; type: cell-based; details: Pseudomonas aeruginosa; read after 24 h; read-out: PA MIC
[12] = system: Candida albicans CCM 8320 (ATCC 24433); assay: Antifungal microdilution broth (EUCAST), CA; type: cell-based; details: Candida albicans; read after 24 h; read-out: CA MIC
[13] = system: Candida krusei CCM 8271 (ATCC 6258); assay: Antifungal microdilution broth (EUCAST), CK; type: cell-based; details: Pichia kudriavzevii; read after 24 h; read-out: CK MIC
[14] = system: Candida parapsilosis CCM 8260 (ATCC 22019); assay: Antifungal microdilution broth (EUCAST), CP; type: cell-based; details: Lodderomyces parapsilosis; read after 24 h; read-out: CP MIC
[15] = system: Candida tropicalis CCM 8264 (ATCC 750); assay: Antifungal microdilution broth (EUCAST), CT; type: cell-based; details: Candida tropicalis; read after 24 h; read-out: CT MIC
[16] = system: Aspergillus fumigatus ATCC 204305; assay: Antifungal microdilution broth (EUCAST), AF; type: cell-based; details: Aspergillus fumigatus, ATCC204305; read after 24 h; read-out: AF MIC
[17] = system: Aspergillus flavus CCM 8363; assay: Antifungal microdilution broth (EUCAST), AFla; type: cell-based; details: Aspergillus flavus, CCM8363; read after 24 h; read-out: AFla MIC
[18] = system: Lichtheimia corymbifera CCM 8077; assay: Antifungal microdilution broth (EUCAST), LC; type: cell-based; details: Lichtheimia corymbifera, CCM8077; read after 24 h; read-out: LC MIC
[19] = system: Trichophyton interdigitale CCM 8377 (ATCC 9533); assay: Antifungal microdilution broth (EUCAST), TI; type: cell-based; details: Trichophyton interdigitale, 72 h, read-out: TI MIC
[20] = system: HepG2 human hepatocellular carcinoma cells; assay: In vitro HepG2 cytotoxicity (CellTiter 96); details: for IC50: Homo sapiens, HepG2, 24 h, read-out: HepG2 IC50, 24 h incubation, * limit = highest evaluated concentration (precipitation in medium), ** over the 1000 µM limit
[21] = system: Klebsiella pneumoniae CCM 4415 (ATCC 10031); assay: Antibacterial microdilution broth (EUCAST), KP; details: read after 24 h
[22] = read after 24 h, read-out: EF MIC

Structure (SMILES)	MIC [1] [mg/L]	MIC ([2]; MABA, resazurin after 48 h) [mg/L]	MIC [3] [mg/L]	MIC [4] [mg/L]	MIC [6] [µM]	MIC [7] [µM]	MIC [8] [µM]	MIC [5, 22] [µM]	MIC [9] [µM]	MIC [10] [µM]	MIC [11] [µM]	MIC [12] [µM]	MIC [13] [µM]	MIC [14] [µM]	MIC [15] [µM]	MIC [16] [µM]	MIC [17] [µM]	MIC [18] [µM]	MIC [19] [µM]	IC50 [20] [µM]	also measured
O=C(O)c1cn(C2CC2)c2cc(N3CCNCC3)c(F)cc2c1=O [CIP, ciprofloxacin, reference compound]	0.25 (≈ 0.754 µM)	0.063 (≈ 0.19 µM)	0.016 (≈ 0.0483 µM)	0.2 (≈ 0.604 µM)	–	–	–	–	–	–	–	–	–	–	–	–	–	–	–	–	MIC ([5]; internal quality control, no visible growth, 24 h, read-out: MIC, visual detection): 1.02 mg/L
Cc1ccc(C(=O)Nc2nccnc2C(N)=O)cc1 [Compound 4]	7.81 (≈ 30.5 µM)	≥ 250	≥ 250	6.25 (≈ 24.4 µM)	> 500	> 500	> 500	> 500	> 500	> 500	> 500	> 500	> 500	> 500	> 500	> 500	> 500	> 500	> 500	> 100	activity on Mtb H37Rv and both MDR strains (in words) [4]: significant activity; KP MIC [21]: > 500 µM
NC(=O)c1nccnc1NC(=O)c1ccc(F)cc1 [Compound 12]	31.2 (≈ 120 µM)	250 (≈ 961 µM)	≥ 500	50 (≈ 192 µM)	> 500	> 500	> 500	> 500	> 500	> 500	> 500	> 500	> 500	> 500	> 500	> 500	> 500	> 500	> 500	> 250	activity on Mtb H37Rv and both MDR strains (in words) [4]: significant activity; KP MIC [21]: > 500 µM
NC(=O)c1nccnc1NC(=O)c1ccc(Cl)cc1 [Compound 15]	3.91 (≈ 14.1 µM)	–	≥ 250	6.25 (≈ 22.6 µM)	> 500	> 500	> 500	> 500	> 500	> 500	> 500	> 125	> 125	> 125	> 125	> 125	> 125	> 125	> 125	> 100	activity against M. smegmatis (in words) [2]: high activity; MIC ([2]; 48 h): 3.91 mg/L (≈ 14.1 µM); activity on Mtb H37Rv and both MDR strains (in words) [4]: significant activity; KP MIC [21]: > 500 µM
NC(=O)c1nccnc1NC(=O)c1ccc(Br)cc1 [Compound 18]	1.95 (≈ 6.07 µM)	125 (≈ 389 µM)	≥ 250	6.25 (≈ 19.5 µM)	> 500	> 500	> 500	> 500	> 500	> 500	> 500	> 125	> 125	> 125	> 125	> 125	> 125	> 125	> 125	> 25	solubility in the testing medium (in words) ([20]; HepG2 cell culture medium): low solubility; KP MIC [21]: > 500 µM
O=c1[nH]c(-c2ccc(Cl)cc2)nc2nccnc12 [Compound 42]	≥ 500	≥ 500	≥ 500	–	> 125	> 125	> 125	> 125	> 125	> 125	> 125	> 125	> 125	> 125	> 125	> 125	> 125	> 125	> 125	> 250	melting point: 306.5 to 307.9 °C; KP MIC [21]: > 125 µM

From article PMC9687610, “Adenosine-Mimicking Derivatives of 3-Aminopyrazine-2-Carboxamide: Towards Inhibitors of Prolyl-tRNA Synthetase with Antimycobacterial Activity” (Biomolecules, 2022)
